Results from US20230158034A1, “CO-TREATMENT WITH CDK4/6 AND CDK2 INHIBITORS TO SUPPRESS TUMOR ADAPTATION TO CDK2 INHIBITORS” (Pfizer Inc., priority 2020, published 2023).

Columns and labels:
[1] = tested on: CDK2 activity (DHB sensor phosphorylation); assay: DHB-based CDK2 activity sensor, single-cell time-lapse imaging (C/N ratio); set-up: species or system human
Description: (§1) The DHB sensor is localized to the nucleus when it is not phosphorylated. Upon phosphorylation, the nuclear localization signal is masked, the nuclear export signal is unmasked, and the sensor steadily translocates to the cytoplasm in response to increasing CDK2 activity (FIG. 1A). Thus, kinase activity can be quantified by the ratio of the cytoplasmic to nuclear fluorescence intensity (C/N ratio) of the DHB sensor. […] Asynchronously cycling cells were first imaged for approximately 20 hr in the absence of drug to establish the cell-cycle phase of each cell; the movie was then paused to add drug, and then imaging was continued for another 1-2 days. Because the cells were cycling asynchronously, all cell-cycle phases with one drug treatment were sampled. This allowed the present inventors to computationally isolate traces for cells that received drug at any time since the completion of anaphase.
(§2) Cells were seeded at least 24 hr prior to imaging in phenol-red-free full-growth medium in glass-bottom 96-well plates (CellVis P96-1.5H-N) that were coated with collagen prior to seeding. The seeding density was chosen such that the cells would remain sub-confluent until the end of the imaging period. Cells were first imaged for 16-20 hr in full-growth media without drug. The movie was then briefly paused and the full-growth media was replaced with full-growth media containing drug at the desired concentration. The plate was then re-inserted into the microscope and aligned to its prior position and imaging was continued for an additional 24-48 hr. Images were acquired every 12 min (for MCF10A or RPE-hTERT) or every 20 min (for MCF7 or OVCAR3) on a Nikon Eclipse Ti or Ti2 microscope with a 10×0.45 NA objective in a humidified, 37° C. chamber at 5% CO2. Exposure times for all movies for all channels were kept under 500 ms per timepoint to minimize phototoxicity. Cell tracking was performed using published MATLAB scripts (Cappell et al., 2016), as described previously (Arora et al., 2017). The tracking code is available for download at https://github.com/scappell/Cell_tracking. Cell counts over time were obtained by counting the number of segmented nuclei in each frame of the movie.
Asynchronously cycling cells that divided and received drug treatments during the imaging period were initially segmented into categories based on the cells' time of anaphase relative to the time of drug addition. These cells were then additionally subcategorized based on their DHB cytoplasmic/nuclear (C/N) ratio after the mitotic event. C/N ratio was calculated by quantifying the ratio of cytoplasmic to nuclear mean DHB fluorescence, with the cytoplasmic component calculated as the mean of the top 50th percentile of a ring of pixels outside of the nuclear mask.
Cells were classified as CDK2^inc if the DHB C/N ratio was above 0.5 units 3 hr after anaphase, otherwise they were classified as CDK2^low. Figure legends indicate whether only CDK2^inc cells or whether all cells are plotted. The median of the single-cell traces in a subcategory was then used to create median trace with 95% confidence interval representative of the particular subcategory. All cell trace analysis was done using custom MATLAB scripts and code is available upon request.

[2] = tested on: MCF10A, RPE-hTERT, MCF7 and OVCAR3 cells; assay: Cell-cycle progression, mitosis and proliferation by time-lapse imaging; type: cell-based, human
Description: as §1, §2

[3] = tested on: Kras^+/LSLG12V; Trp53^L/L lung tumors; assay: Mouse lung tumor model, tumor volume by CT scans; type: in vivo
Protocol: To test the potential compensatory relationship between CDK2 and CDK4/6 in vivo, an established mouse lung tumor model driven by KRAS^G12V and TRP53 mutations was used. Kras^+/LSLG12V, Trp53^L/L mice intra-nasally infected with adenoviral particles encoding Cre recombinase developed lung tumors with a latency of 5 months. Once tumor development was detected by CT scans, animals were treated with either vehicle or palbociclib (70 mg/kg QD) for 28 days and tumor volumes were subsequently measured by CT scans at the end of the treatment period.
Mice: Kras^+/LSLG12V Trp53^L/L and Cdk2^−/− mice have been previously described (Guerra et al., 2003; Jonkers et al., 2001; Ortega et al., 2003). Compound mice using the following transgenes: Kras^+/LSLG12V, (Guerra et al., 2003); Trp53^L/L (Lee et al., 2012), and Cdk2^−/− (Ortega et al., 2003) were generated for this study. All animal experiments were approved by the Ethical Committees of the Spanish National Cancer Research Centre (CNIO), the Carlos III Health Institute and the Autonomous Community of Madrid (PROEX 270/14) and were performed in accordance with the guidelines stated in the International Guiding Principles for Biomedical Research Involving Animals, developed by the Council for International Organizations of Medical Sciences (CIOMS). Mice were housed in specific-pathogen-free conditions at CNIO's Animal Facility (AAALAC, JRS:dpR 001659). Female and male mice were used for the experiments. All mice were genotyped at the CNIO's Genomic Unit. […]
Micro CT imaging: Image studies were done by the Molecular Imaging Core Unit at the CNIO. […] Tumor volume was calculated as follows: (short axis x short axis x long axis/2).
Pharmacological treatment in mice: Kras^+/LSLG12V; Trp53^L/L; Cdk2^−/− and Kras^+/LSLG12V; Trp53^L/L; Cdk2^+/+ mice were infected with 10^6 pfu of Ad-Cre. Once tumors were detected by CT, mice harboring at least one tumor bigger than 3 mm^3 were enrolled in the different treatment groups. […] Drug efficacy was monitored by CT measurements.

[4] = PF3600, MCF10A, MCF7 and RPE-hTERT cells

Compound	effect on DHB sensor phosphorylation, cell-cycle progression, or the timing of mitosis ([1]; 1 μM palbociclib added 5 hr or later after anaphase/mitosis, MCF10A)	cell-cycle arrest ([2]; 1 μM palbociclib (after the upcoming mitosis) or 9 μM RO3306 (toward end of cell cycle), MCF10A)	sensitivity to palbociclib ([2]; MCF10A, MCF7 and RPE-hTERT cells)	sensitivity to palbociclib ([2]; OVCAR3 cells (amplification of cyclin E))	tumor size ([3]; palbociclib 70 mg/kg QD for 4 weeks, Trp53^L/L, Cdk2^−/− mice, p=0.037)	tumor volume fold change vs vehicle ([3]; palbociclib 70 mg/kg QD for 28 days, Trp53^L/L mice (Cdk2^+/+))	DHB sensor phosphorylation behavior ([1]; 25 nM PF3600, MCF7)	DHB sensor phosphorylation behavior ([1]; 100 nM PF3600, MCF7)	cells that initially responded ([1]; PF3600) [%]	rebound of DHB sensor phosphorylation ([1]; PF3600, OVCAR3 cells)	onset of rebound in DHB sensor phosphorylation [1, 4] [h]	time until DHB sensor phosphorylation returned to pre-treatment levels [1, 4] [h]	cell proliferation and mitoses ([2]; 25 nM PF3600, OVCAR3 cells, remainder of the imaging period)	mitosis ([2]; 100 nM PF3600, MCF7)	cell-cycle progression and mitosis after PF3600 [2, 4]	intermitotic times [2, 4]	tumor volumes ([3]; PF3600 50 mg/kg BID for 4 weeks, Trp53^L/L mice)
CC(=O)c1c(C)c2cnc(Nc3ccc(N4CCNCC4)cn3)nc2n(C2CCCC2)c1=O [palbociclib]	no immediate effect	CDK2^low G0 arrest	palbociclib-sensitive	resistant	significantly reduced tumor size	no significant reduction in tumor burden											
C[C@@]1(O)CCC[C@H]1n1c(=O)c(C(F)F)cc2cnc(NC3CCN(S(C)(=O)=O)CC3)nc21 [PF3600, 6-(difluoromethyl)-8-[(1R,2R)-2-hydroxy-2-methylcyclopentyl]-2-{[1-(methylsulfonyl)-piperidin-4-yl]amino}pyrido[2,3-d]pyrimidin-7(8H)-one]							drop-rebound behavior	brief rebound followed by long-lived suppression of DHB phosphorylation	100	did not rebound	1 to 2	≤ 5	inhibited cell proliferation and prevented all further mitoses	blocked mitosis	cell-cycle progression continued, and cells eventually completed mitosis	longer intermitotic times	significantly reduced tumor volumes
